One series concerns the target T1, CDK7/CycH1 (Homo sapiens, UniProt P50613).
T1 construct: expressed in transfected cells; host or cells: HEK293
As to the kind of experiment: NanoBRET target engagement assay. The series is classed as binding. Particulars: HEK-293T cells transfected with CDK complex. The method, then:
HEK293 cells were prepared to a final concentration of 100 000 cells/ml in 1% fetal bovine serum (FBS) Opti-MEM. Transfection mixtures were prepared with 1 μg of plasmid encoding NanoLuc-fused CDK and 9 μg of plasmid encoding cyclin, diluted in 1 ml Opti-MEM. FuGENE HD (Promega) was added to transfection mixture at a ratio of 30 μl/1 ml. After liposome formation, the lipid:DNA complex was added at a 1:20 ratio to HEK293 cells in suspension. Cells were plated in 384-well tissue culture plates and incubated overnight (20–30 h) at 37°C/5% CO2. Compounds were prepared from DMSO stock solutions and added to cell plates with a final top concentration of 10 000 nM. NanoBRET tracer solution was prepared from 100X tracer solution. For CDK1/cyclin B1, CDK9/cyclin T1, and CDK2/cyclin E1 assays, tracer K10 was used at a final concentration of 0.5 μM, 0.250 μM, and 0.125 μM, respectively. For CDK4/cyclin D1, and CDK6/cyclin D3, tracer K7 was used at a final concentration of 0.0625 μM. For CDK7/cyclin H1, tracer K7 was used at a final concentration of 0.5 μM. The plate was incubated at 37°C/5% CO2 for 2 h. NanoBRET substrate solution was prepared 15 min prior to the assay endpoint using serum-free OptiMEM. […] The plate was then shaken and read using the Perkin Elmer Envision plate reader. The donor emission was measured at 450 nm, followed by acceptor emission at 610 nm. […]
(BRET reads energy transfer from a luciferase to a nearby fluorophore.)

The subject of a further series is kinases tested (n = 468). The series can be described thus: KINOMEscan kinome selectivity. Particulars: fraction of kinases with <10% of control at 3 μM among 468 kinases tested. The series is classed as binding.
Another series deals with CDK7/CycH1/MNAT1 (Homo sapiens, UniProt P50613). As to the kind of experiment: ATP-competition caliper enzyme assay. The format is biochemical. To be noted: 1 mM ATP.
Another series deals with OVCAR-3 cells. The series can be described thus: CyQuant proliferation assay. The series is classed as cell-based, human. Particulars: proliferation, 5 days, mean of two independent replicates. The method, then: (§1) OVCAR-3, COV644, or MCF-7 cells were seeded at 1000 cells/well in 384-well black, clear bottom plates and allowed to adhere overnight at 37°C/5% CO2. The following day, cells were treated with compound in a 10-point dose response, 1:4 dilutions. After 5 days of incubation, CyQuant Direct Proliferation Assay was performed according to the manufacturer's instructions. Data were processed with GraphPad Prism using a four-parameter fit to calculate IC50.

The nature of series [1]: Pharmacokinetics (plasma concentrations after oral dose). The series is classed as in vivo, NOD-SCID mice. Particulars: single p.o. dose. The text has this: (A) Chemical structures of BLU2256. […]
family members. Error bars represent SD of at least duplicate independent experiments. (D) NanoBret assessment of BLU2256 target engagement in indicated CDK complexes expressed in HEK-293 cells. Error bars represent SD of at least duplicate independent experiments. (E) Dose-response curve for pRb T821/826 […]
Error bars represent SD of at least duplicate independent experiments. (F) Dose-response curve for pLamin S22 inhibition by BLU1851 in OVCAR-3 and COV644 cells. Error bars represent SD of duplicate independent experiments. (G) Do se -response curves in MCF-7, OVCAR-3 cells. Cells were treated with a 10- point dose response of indicated compounds and incubated for 5 days before CyQuant assay was performed. […]
Contemporaneously, cells were transfected with a 3X-FLAG donor plasmid plus a plasmid containing Cas9 and a single guide RNA (sgRNA), scramble control (sgScr), or an sgRNA targeting beta- actin (sgACTB). […] The percent body weight change is calculated by normalizing to day 0 per treatment group. […] (M) Quantification of Western blot for pRb S807/811 normalized individually to actin and then to vehicle group to calculate % inhibition. […]
(N) Relative body weight over treatment time. The percent body weight change is calculated by normalizing to day 0 per treatment group. […] The percent body weight change is calculated by normalizing to day 0 per treatment group. […]

The subject of a further series is MCF-7 cells. As to the kind of experiment: CyQuant proliferation assay. Particulars: proliferation, 5 days, CyQuant; mean of two independent replicates; read-out: MCF-7 IC50. The format is cell-based. How it is done: as §1
For the next series, the system named is OVCAR-3 xenografts. As to the kind of experiment: OVCAR-3 xenograft tumor growth inhibition. The format is in vivo, NOD-SCID mice. The method, then: Female NOD-SCID mice were purchased from Shanghai Lingchang BioTech Co., Ltd at 6–8 weeks old. Mice were housed in solid bottom polycarbonate ventilated cages at a temperature of 20–26°C in 40–70% humidity. Mice were kept on a 12-h light,
Twelve-hour dark cycle with regularly changed 100% filtered air. Municipal water and rodent diet were provided ad libitum. The general health of the animals was monitored through gross observation, regular body weight measurement, and monitoring of food and water intake. All procedures related to animal handling, care, and treatment were performed according to the protocol approved by the Institutional Animal Care and Use Committee of Shanghai Chempartner following the guidance of the Association for Assessment and Accreditation of Laboratory Animal Care (AAALAC).
OVCAR-3 cells were passaged through mice once, and a cell line was rederived from the tumor, named ‘T2A.’ OVCAR-3 T2A cells were cultured in RPMI 1640 media supplemented with 20% FBS and 0.01 mg/ml insulin. To establish the OVCAR-3 xenograft model, 6 × 10^6 cells per mouse were implanted subcutaneously into the right hind flank of NOD-SCID female mice. Cells were suspended in 50% Matrigel and 50% RPMI 1640 media serum free media prior to implantation.
In OVCAR-3 tumor growth inhibition studies, animals were randomized and treatment began when tumors reached ∼200 mm^3 in size (n = at least eight/group). […] Etoposide was prepared in 5% DMSO + 40% PEG300 + 5%Tween 80 + 50%dd water and dosed intraperitoneally QD at 1.25 mg/kg for 3 days for each week of the study. Olaparib was prepared in 10% HP-ß-CD in water and dosed intraperitoneally QD at 50 mg/kg. Tumor sizes and body weight were measured twice weekly. Tumor sizes were measured in two dimensions using a caliper, and the volume (mm^3) was calculated using the formula: V = 0.5 a x b^2 where a and b are the long and short diameters of the tumor, respectively.

Bounds are passed on as bounds.

CDK7/CycH1/MNAT1, sequence (P50613 whole entry): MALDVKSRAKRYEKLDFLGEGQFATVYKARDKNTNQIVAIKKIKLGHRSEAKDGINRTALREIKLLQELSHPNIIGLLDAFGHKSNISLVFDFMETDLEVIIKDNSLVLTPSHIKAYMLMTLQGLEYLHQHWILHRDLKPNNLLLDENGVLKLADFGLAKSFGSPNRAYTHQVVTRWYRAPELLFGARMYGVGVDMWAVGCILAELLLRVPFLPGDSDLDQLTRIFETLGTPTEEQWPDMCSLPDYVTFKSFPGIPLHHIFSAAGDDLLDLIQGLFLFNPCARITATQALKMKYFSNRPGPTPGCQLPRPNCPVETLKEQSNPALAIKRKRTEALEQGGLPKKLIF
CDK7/CycH1/MNAT1, sequence (P51946 whole entry partner): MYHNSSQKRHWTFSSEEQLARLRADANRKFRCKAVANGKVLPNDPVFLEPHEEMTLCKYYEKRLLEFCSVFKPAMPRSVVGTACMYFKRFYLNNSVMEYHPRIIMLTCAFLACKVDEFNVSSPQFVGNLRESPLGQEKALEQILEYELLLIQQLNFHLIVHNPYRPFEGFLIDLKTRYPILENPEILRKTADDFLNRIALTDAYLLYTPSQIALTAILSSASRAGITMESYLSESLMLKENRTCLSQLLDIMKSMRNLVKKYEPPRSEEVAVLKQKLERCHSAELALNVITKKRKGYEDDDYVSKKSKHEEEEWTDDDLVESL
CDK7/CycH1/MNAT1, sequence (P51948 whole entry partner): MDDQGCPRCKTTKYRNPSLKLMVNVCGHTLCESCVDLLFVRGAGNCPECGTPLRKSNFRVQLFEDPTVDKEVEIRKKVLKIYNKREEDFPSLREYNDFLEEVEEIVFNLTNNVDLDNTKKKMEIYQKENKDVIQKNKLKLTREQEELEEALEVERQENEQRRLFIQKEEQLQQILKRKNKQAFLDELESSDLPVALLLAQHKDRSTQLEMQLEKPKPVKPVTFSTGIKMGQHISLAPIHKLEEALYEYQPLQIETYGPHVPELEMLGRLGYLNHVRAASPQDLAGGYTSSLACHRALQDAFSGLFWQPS
T1 sequence (P50613 whole entry): as the sequence (P50613 whole entry) above
T1 sequence (P51946 whole entry partner): as the sequence (P51946 whole entry partner) above

For `CC(C)(O)Cn1cc(-c2nc(Nc3ccc(S(N)(=O)=O)cc3F)ncc2C(F)(F)F)cn1` [BLU2256], the IC50 (commonly the concentration at which inhibition is half-maximal) against CDK7/CycH1 is 4.42 µM; on CDK7/CycH1/MNAT1 it was above 6.67 µM; with OVCAR-3 cells it was 0.0825 µM; in the series on MCF-7 cells, 1.28 µM. The “Kinome S (10)” value in the series with kinases tested (n = 468) was found to be 0.040. Also, in series [1], the “pharmacokinetics compared with BLU1851” value was “superior pharmacokinetics”. The tumor growth inhibition result with OVCAR-3 xenografts (3 mg/kg QD PO) was “sub-efficacious with minor tumor growth inhibition”; with OVCAR-3 xenografts (5 mg/kg BID PO) it was “efficacious dose, inducing tumor stasis”; in the series with OVCAR-3 xenografts (dose titration, PO QD for 3 weeks) it was “dose-dependent tumor growth inhibition”. In addition, in the series with OVCAR-3 xenografts (dose titration, PO), the body weight result is on record as “without a change in body weight”. In addition, the “inhibition of RB1 phosphorylation in tumors” value in the series with OVCAR-3 xenografts (on-target activity) is “dose and time-dependent”.

The values are drawn from paper PMC10373114, “CDK2 regulates collapsed replication fork repair in CCNE1-amplified ovarian cancer cells via homologous recombination” (NAR Cancer, 2023).
